Experimental data reported in PubChem BioAssay (NCI).
Values joined by “and” are separate entries in the source; they are usually repeats but may differ in a detail not shown here. Equal entries are not always repeated.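 Each compound was tested at five concentrations against cells in 96-well plates for 48 hours. GI50 = concentration required for 50% inhibition of growth. TGI marks complete inhibition of growth.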

Tests used:
Test in all cases: DTP human tumour cell line panel, 48 h
786-0 renal = system: 786-0 renal
A498 renal = system: A498 renal
A549 NSCLC = system: A549 NSCLC
ACHN renal = system: ACHN renal
BT-549 breast = system: BT-549 breast
CAKI-1 renal = system: CAKI-1 renal
CCRF-CEM leukemia = system: CCRF-CEM leukemia
COLO 205 colon = system: COLO 205 colon
DU-145 prostate = system: DU-145 prostate
EKVX NSCLC = system: EKVX NSCLC
HCC-2998 colon = system: HCC-2998 colon
HCT-116 colon = system: HCT-116 colon
HCT-15 colon = system: HCT-15 colon
HL-60(TB) leukemia = system: HL-60(TB) leukemia
HOP-62 NSCLC = system: HOP-62 NSCLC
HOP-92 NSCLC = system: HOP-92 NSCLC
HS 578T breast = system: HS 578T breast
HT29 colon = system: HT29 colon
IGROV1 ovarian = system: IGROV1 ovarian
K-562 leukemia = system: K-562 leukemia
KM12 colon = system: KM12 colon
LOX IMVI melanoma = system: LOX IMVI melanoma
M14 melanoma = system: M14 melanoma
MALME-3M melanoma = system: MALME-3M melanoma
MDA-MB-231 breast = system: MDA-MB-231 breast
MDA-MB-435 = system: MDA-MB-435
MDA-MB-468 breast = system: MDA-MB-468 breast
MOLT-4 leukemia = system: MOLT-4 leukemia
NCI-H226 lung = system: NCI-H226 lung
NCI-H23 lung = system: NCI-H23 lung
NCI-H460 lung = system: NCI-H460 lung
NCI-H522 lung = system: NCI-H522 lung
NCI/ADR-RES ovarian = system: NCI/ADR-RES ovarian
OVCAR-3 ovarian = system: OVCAR-3 ovarian
OVCAR-4 ovarian = system: OVCAR-4 ovarian
OVCAR-5 ovarian = system: OVCAR-5 ovarian
PC-3 prostate = system: PC-3 prostate
RPMI-8226 leukemia = system: RPMI-8226 leukemia
RXF 393 renal = system: RXF 393 renal
SF-268 CNS = system: SF-268 CNS
SF-295 CNS = system: SF-295 CNS
SF-539 CNS = system: SF-539 CNS
SK-MEL-2 melanoma = system: SK-MEL-2 melanoma
SK-MEL-28 melanoma = system: SK-MEL-28 melanoma
SK-MEL-5 melanoma = system: SK-MEL-5 melanoma
SK-OV-3 ovarian = system: SK-OV-3 ovarian
SN12C renal = system: SN12C renal
SNB-19 CNS = system: SNB-19 CNS
SNB-75 CNS = system: SNB-75 CNS
SR leukemia = system: SR leukemia
SW-620 colon = system: SW-620 colon
T-47D breast = system: T-47D breast
TK-10 renal = system: TK-10 renal
U251 CNS = system: U251 CNS
UACC-257 melanoma = system: UACC-257 melanoma
UACC-62 melanoma = system: UACC-62 melanoma
UO-31 renal = system: UO-31 renal

CC1=C(CCC=NNC(N)=O)C2=C(C)C3(CC3)[C@@](C)(O)C(=O)C2=C1
GI50 (786-0 renal): 113 nM
TGI (786-0 renal): 428 nM
GI50 (A498 renal): 208 nM
TGI (A498 renal): 511 nM
GI50 (A549 NSCLC): 122 nM
TGI (A549 NSCLC): 2160 nM
GI50 (ACHN renal): 68.7 nM
TGI (ACHN renal): 344 nM
GI50 (BT-549 breast): 60.5 nM
TGI (BT-549 breast): 212 nM
GI50 (CAKI-1 renal): 133 nM
TGI (CAKI-1 renal): 1110 nM
GI50 (CCRF-CEM leukemia): 2360 nM
TGI (CCRF-CEM leukemia): > 35200 nM
GI50 (COLO 205 colon): 152 nM
TGI (COLO 205 colon): 314 nM
GI50 (DU-145 prostate): 34.7 nM
TGI (DU-145 prostate): 1200 nM
GI50 (EKVX NSCLC): 177 nM
TGI (EKVX NSCLC): 526 nM
GI50 (HCC-2998 colon): 94.1 nM
TGI (HCC-2998 colon): 259 nM
GI50 (HCT-116 colon): 142 nM
TGI (HCT-116 colon): 1400 nM
GI50 (HCT-15 colon): 122 nM
TGI (HCT-15 colon): 616 nM
GI50 (HL-60(TB) leukemia): 56.8 nM
GI50 (HOP-62 NSCLC): 74.4 nM
TGI (HOP-62 NSCLC): 802 nM
GI50 (HOP-92 NSCLC): 34.6 nM
TGI (HOP-92 NSCLC): 180 nM
GI50 (HS 578T breast): 249 nM
TGI (HS 578T breast): 1070 nM
GI50 (HT29 colon): 170 nM
TGI (HT29 colon): 740 nM
GI50 (IGROV1 ovarian): 35.6 nM
TGI (IGROV1 ovarian): 161 nM
GI50 (K-562 leukemia): 2320 nM
TGI (K-562 leukemia): > 37900 nM
GI50 (KM12 colon): 506 nM
TGI (KM12 colon): 7670 nM
GI50 (LOX IMVI melanoma): 149 nM
TGI (LOX IMVI melanoma): 410 nM
GI50 (M14 melanoma): 74.5 nM
TGI (M14 melanoma): 253 nM
GI50 (MALME-3M melanoma): 82.2 nM
TGI (MALME-3M melanoma): 218 nM
GI50 (MDA-MB-231 breast): 142 nM
TGI (MDA-MB-231 breast): 435 nM
GI50 (MDA-MB-435): 267 nM
TGI (MDA-MB-435): 941 nM
GI50 (MDA-MB-468 breast): 187 nM and 31.6 nM
TGI (MDA-MB-468 breast): 691 nM and 95.3 nM
GI50 (MOLT-4 leukemia): 1180 nM
TGI (MOLT-4 leukemia): > 41500 nM
GI50 (NCI-H226 lung): 200 nM
TGI (NCI-H226 lung): 646 nM
GI50 (NCI-H23 lung): 17.2 nM
TGI (NCI-H23 lung): 45 nM
GI50 (NCI-H460 lung): 24.3 nM
TGI (NCI-H460 lung): 218 nM
GI50 (NCI-H522 lung): 165 nM
TGI (NCI-H522 lung): 414 nM
GI50 (NCI/ADR-RES ovarian): 104 nM
TGI (NCI/ADR-RES ovarian): 407 nM
GI50 (OVCAR-3 ovarian): 132 nM
TGI (OVCAR-3 ovarian): 828 nM
GI50 (OVCAR-4 ovarian): 172 nM
TGI (OVCAR-4 ovarian): 574 nM
GI50 (OVCAR-5 ovarian): 45.1 nM
TGI (OVCAR-5 ovarian): 364 nM
GI50 (PC-3 prostate): 175 nM
TGI (PC-3 prostate): 1960 nM
GI50 (RPMI-8226 leukemia): 3020 nM
TGI (RPMI-8226 leukemia): > 35200 nM
GI50 (RXF 393 renal): 19.4 nM
TGI (RXF 393 renal): 41.8 nM
GI50 (SF-268 CNS): 34.3 nM
TGI (SF-268 CNS): 423 nM
GI50 (SF-295 CNS): 89.3 nM
TGI (SF-295 CNS): 1210 nM
GI50 (SF-539 CNS): 32 nM
TGI (SF-539 CNS): 128 nM
GI50 (SK-MEL-2 melanoma): 193 nM
TGI (SK-MEL-2 melanoma): 362 nM
GI50 (SK-MEL-28 melanoma): 187 nM
TGI (SK-MEL-28 melanoma): 369 nM
GI50 (SK-MEL-5 melanoma): 94 nM
TGI (SK-MEL-5 melanoma): 248 nM
GI50 (SK-OV-3 ovarian): 42.2 nM
TGI (SK-OV-3 ovarian): 334 nM
GI50 (SN12C renal): 92.3 nM
TGI (SN12C renal): 654 nM
GI50 (SNB-19 CNS): 225 nM
TGI (SNB-19 CNS): 894 nM
GI50 (SNB-75 CNS): 72.5 nM
TGI (SNB-75 CNS): 226 nM
GI50 (SR leukemia): 1820 nM
TGI (SR leukemia): > 100000 nM
GI50 (SW-620 colon): 1440 nM
TGI (SW-620 colon): 3740 nM
GI50 (T-47D breast): 86.2 nM
TGI (T-47D breast): 2740 nM
GI50 (TK-10 renal): 278 nM
TGI (TK-10 renal): 1260 nM
GI50 (U251 CNS): 210 nM
TGI (U251 CNS): 936 nM
GI50 (UACC-257 melanoma): 190 nM
TGI (UACC-257 melanoma): 427 nM
GI50 (UACC-62 melanoma): 142 nM
TGI (UACC-62 melanoma): 292 nM
GI50 (UO-31 renal): 71.2 nM
TGI (UO-31 renal): 277 nM
